Like-named read-outs stand apart in the source and are kept apart here.
Assays:
[1] = system: pepsin, trypsin, pronase, human neutrophil elastase; assay: Proteolytic stability against a panel of proteases; settings: disulfide bridges reduced and S-alkylated by iodoacetamide
Description: (§3) Samples were collected at various time points.
(§4) All collected samples from various stability assays were analyzed by RP-HPLC with a linear gradient of mobile phase A (0.05% TFA/H2O) and mobile phase B (0.05% TFA/ACN) on aeris peptide XB-C18 column (Phenomenex, US). The resulting peaks were collected and identified by MALDI-TOF MS. The results were expressed as percentage of initial concentration using the peak area of the HPLC profile.

HaCaT cells [2] = type: cell-based, human; settings: for mitogenic effect compared with bleogen pB1: 1 μM, crystal violet assay; for EGFR dependence of proliferative/mitogenic effect: co-incubation with EGFR neutralizing antibody (clone LA1)
Description: HaCaT (human keratinocyte), HUVEC-CS (endothelial cells) cells were cultured in Dulbecco's modification of Eagle's medium (DMEM) supplemented with 10% fetal bovine serum and 100 U/mL of penicillin and streptomycin. Normal Human Epidermal Keratinocytes adult purchased from Lifeline® cell technology were cultured in Lifeline® DermaLife K Medium. They were grown in a 5% CO2 humidified incubator at 37° C. HaCaT cells were stably transfected with pGL4.33[luc2P/SRE/Hygro] (Promega) and selected using 250 μg/mL hygromycin. Stable HaCaT cells expressing SRE luciferase reporter were maintained with 250 μg/mL hygromycin.
Cell proliferation was determined using crystal violet staining. […] 3417-Da-peptide aB1 is a CRP isolated from Achyranthes bidentata with the amino acid sequence […] (SEQ ID NO:11). Crystal violet staining was performed as previously described. Briefly, after the incubation period, the wells were fixed with 4% buffered paraformaldehyde for 20 min. The cells were then stained with 0.25% crystal violet in 20% methanol for 15 min. The excess crystal violet stain was rinsed with distilled water for 4-5 times and air-dried. Glacial acetic acid (10%) in Milli-Q water was added to extract the crystal violet stain. The absorbance was then measured at 595 nm using a microplate reader (Tecan Infinite® 200 Pro, Switzerland).

EGFR = EGFR (Homo sapiens, UniProt P00533); assay: TR-FRET EGFR ligand binding assay (competitive displacement of biotin-EGF); design: purchased PerkinElmer
Sequence of EGFR (P00533 25-645 limits assumed): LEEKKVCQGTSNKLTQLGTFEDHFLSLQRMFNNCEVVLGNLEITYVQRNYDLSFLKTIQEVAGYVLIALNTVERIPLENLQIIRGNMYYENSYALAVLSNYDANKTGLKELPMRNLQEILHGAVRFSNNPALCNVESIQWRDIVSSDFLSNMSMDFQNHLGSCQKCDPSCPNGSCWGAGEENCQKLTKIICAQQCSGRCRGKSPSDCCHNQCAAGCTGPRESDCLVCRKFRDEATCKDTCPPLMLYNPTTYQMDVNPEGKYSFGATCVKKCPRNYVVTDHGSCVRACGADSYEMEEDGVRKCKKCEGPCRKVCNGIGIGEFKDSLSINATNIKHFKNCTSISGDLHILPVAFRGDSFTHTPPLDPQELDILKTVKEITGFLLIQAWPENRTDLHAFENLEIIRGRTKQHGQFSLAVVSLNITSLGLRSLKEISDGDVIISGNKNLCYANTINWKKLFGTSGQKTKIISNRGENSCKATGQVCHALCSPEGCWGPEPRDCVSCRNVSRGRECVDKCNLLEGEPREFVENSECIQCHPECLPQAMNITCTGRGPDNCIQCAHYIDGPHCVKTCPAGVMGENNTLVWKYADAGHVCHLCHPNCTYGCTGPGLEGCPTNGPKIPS
Description: TR-FRET ratio was measured using a microplate reader in dual emission mode (Excitation: 340 nm, emission: 665 nm and 615 nm) (Cytation 1, US). […] (SEQ ID NO:11) or roseltide rT7 with an amino acid sequence of […] (SEQ ID NO:17) were used as negative control.

HaCaT cells [3] = assay: Cell migration scratch assay; type: cell-based, human; settings: data not shown
Description: Cell migration was monitored using the scratch assay. Briefly, HaCaT cells were seeded into 2 well silicone inserts with a defined gap of 500 μm (ibidi, Germany). […] After incubation for 8 h, the wells were photographed using inverted phase-contrast microscope. Images were analyzed for the percentage of cell-free area using the Wimasis image analysis platform.

HUVEC-CS cells = assay: Endothelial tube formation assay; type: cell-based; settings: data not shown
Description: Endothelial tube formation assay was performed using a μ-slide (ibidi, Germany). Briefly, 10 μL of gel matrix (BD Matrigel™ Basement Membrane Matrix) was casted onto each μ-slide well and left to solidify. […] After incubation for 2 h, the wells were photographed using inverted phase-contrast microscope. Images were analyzed for the numbering of branching points using the Wimasis image analysis platform.

newborn ICR mice = assay: Newborn mice model for incisor eruption; type: in vivo, mouse; settings: 3 mg/kg subcutaneous, five consecutive days; saline control 153 h
Description: ICR mice were obtained from Vital Rital Laboratories (Beijing, China). […] All experiments were approved and performed in accordance with the institutional guidelines of the Experimental Animal Center of the Chinese Academy of Medical Science (Beijing, China). Subcutaneous injections were made for five consecutive days in the nape of the neck of the newborn mice starting from the day of birth (day 0). […] Incisor eruption was recorded daily by visual inspection. Incisor eruption was defined as the time at which a given tooth first pierced the oral epithelium.

C57BL/6 mice = assay: Full-thickness splinted excisional wound healing in C57BL/6 mice; type: in vivo, mouse; settings: topical, three consecutive days; bleogen pB1 10 nmol/wound, EGF 1 nmol/wound; vs saline
Description: C57BL/6 mice were obtained from Vital Rital Laboratories (Beijing, China). […] All experiments were approved and performed in accordance with the institutional guidelines of the Experimental Animal Center of the Chinese Academy of Medical Science (Beijing, China).
(§1) Full-thickness 5-mm splinted excisional wounding of mice was performed. Briefly, mice were anesthetized using an intraperitoneal injection of sodium pentobarbital (50 mg kg^−1). The hair of the back was shaved with an electric clipper followed by a depilatory cream. Using a 5-mm-diameter sterile biopsy punch, symmetrical full-thickness excisional wounds were created. Splints were placed around the wound using adhesive glue and secured with four interrupted sutures. The wounds and splints were covered with Tegaderm (3M, US). At indicated days within the 14 days post-injury course, wound diameters were measured. The size of wound was calculated from the average of two diameter measurements along the x and y axis.
Full-thickness 5 mm splinted excisional wounding of mice was performed on C57BL/6 mice as described above.

[4] = system: STZ-induced diabetic C57BL/6 mice; assay: Full-thickness splinted excisional wound healing in streptozotocin-induced diabetic C57BL/6 mice; type: in vivo, mouse; settings: 1 nmol/wound topical, five consecutive days
Description: as §1
Diabetes was induced into C57BL/6 mice by two intraperitoneal injection (80 mg/kg) of STZ at day 1 and 5. Starting from day 8, blood glucose was monitored regularly for two weeks. […] Blood glucose was also monitored at day 14 post-injury to ensure the mice are diabetic.

c-fos = assay: Gene expression analysis (qPCR) of c-fos in HaCaT cells; type: cell-based, human; settings: 2 h treatment
Description: (§2) Total RNA was extracted from HaCaT and primary human keratinocytes using PureLink™ RNA mini kit (Thermo Fisher Scientific, US). First-strand cDNA was synthesised from 600 ng of total RNA using SuperScript™ II Reverse Transcriptase and Oligo(dT)12-18 (Thermo Fisher Scientific, US) according to the manufacturer's instructions. Quantitative PCR (qPCR) was performed with iTaq Universal SYBR Green Supermix (Bio-Rad, US) on a CFX96 Touch Real-Time PCR Detection System (Bio-Rad, US) for 40 cycles. PCR reaction (20 μL): 3 μL cDNA, 1 μL primer mix (10 μM), 6 μL DEPC-treated water and 10 μL mastermix. […] GAPDH was used as a housekeeping gene for normalization. Fold changes of gene expressions with c-fos and c-Jun were calculated using the 2^−ΔΔCT method.

c-Jun = assay: Gene expression analysis (qPCR) of c-Jun in HaCaT cells; type: cell-based, human; settings: 2 h treatment
Description: as §2

[5] = Heat stability (100° C., RP-HPLC); type: physicochemical
Description: Samples were collected at various time points (0, 30, 60, and 120 min).

physchem = settings: buffer
Description: as §3, §4

[6] = system: pepsin, trypsin, pronase, human neutrophil elastase; assay: in vitro
Description: as §3, §4

For `CC[C@H](C)[C@H](NC(=O)[C@H](CCC(=O)O)NC(=O)[C@@H](NC(=O)[C@H](CSCC(N)=O)NC(=O)[C@H](CCCCN)NC(=O)[C@H](C)NC(=O)CNC(=O)[C@H](CC(N)=O)NC(=O)[C@@H]1CCCN1C(=O)[C@H](CCCCN)NC(=O)[C@H](CSCC(N)=O)NC(=O)[C@@H](N)CCC(N)=O)[C@@H](C)O)C(=O)N[C@@H](CO)C(=O)N[C@H](C(=O)N1CCC[C@H]1C(=O)N1CCC[C@H]1C(=O)N[C@@H](CSCC(N)=O)C(=O)N[C@@H](CSCC(N)=O)C(=O)N[C@@H](CO)C(=O)N[C@@H](CC(N)=O)C(=O)N[C@@H](Cc1ccccc1)C(=O)N[C@@H](CSCC(N)=O)C(=O)N[C@@H](CC(C)C)C(=O)N[C@@H](CCCNC(=N)N)C(=O)N[C@@H](Cc1ccc(O)cc1)C(=O)N[C@@H](C)C(=O)NCC(=O)N[C@@H](CCC(N)=O)C(=O)N[C@@H](CCCCN)C(=O)N[C@@H](CO)C(=O)NCC(=O)N[C@H](C(=O)N[C@@H](CSCC(N)=O)C(=O)N[C@@H](C)C(=O)N[C@@H](CC(N)=O)C(=O)N[C@@H](CCCNC(=N)N)C(=O)O)[C@@H](C)O)[C@@H](C)CC` [S-alkylated bleogen pB1, reference compound], the “degradation by proteases (time)” value [1] was “within a couple of minutes”.
In the case of “NCESGTSCIPGAQHNCCSGVCVPIVTIFYGVCY (listed as Achyranthes bidentata) [aB1, reference compound]”, the “HaCaT cell proliferation, concentration up to which not active” value (HaCaT cells [2]; negative control) is reported as > 10 µM.
For `COc1cc2ncnc(Nc3cccc(Cl)c3)c2cc1OC` [AG1478, reference compound], the “effect of co-incubation on bleogen pB1-induced HaCaT cell proliferation” value (HaCaT cells [2]; serum-free medium, 72 h) was “substantially inhibited”.
For `CC[C@H](C)[C@@H]1NC(=O)[C@H](CCC(=O)O)NC(=O)[C@H]([C@@H](C)O)NC(=O)[C@@H]2CSSC[C@@H]3NC(=O)[C@H](Cc4ccccc4)NC(=O)[C@H](CC(N)=O)NC(=O)[C@H](CO)NC(=O)[C@H](CSSC[C@H](NC(=O)[C@@H](N)CCC(N)=O)C(=O)N[C@@H](CCCCN)C(=O)N4CCC[C@H]4C(=O)N[C@@H](CC(N)=O)C(=O)NCC(=O)N[C@@H](C)C(=O)N[C@@H](CCCCN)C(=O)N2)NC(=O)[C@H](CSSC[C@@H](C(=O)N[C@@H](C)C(=O)N[C@@H](CC(N)=O)C(=O)N[C@@H](CCCNC(=N)N)C(=O)O)NC(=O)[C@H]([C@@H](C)O)NC(=O)CNC(=O)[C@H](CO)NC(=O)[C@H](CCCCN)NC(=O)[C@H](CCC(N)=O)NC(=O)CNC(=O)[C@H](C)NC(=O)[C@@H](Cc2ccc(O)cc2)NC(=O)[C@H](CCCNC(=N)N)NC(=O)[C@H](CC(C)C)NC3=O)NC(=O)[C@@H]2CCCN2C(=O)[C@@H]2CCCN2C(=O)[C@H]([C@@H](C)CC)NC(=O)[C@H](CO)NC1=O` [[Y25y]pB1], the “mitogenic effect compared with bleogen pB1” value (HaCaT cells [2]; 72 h) was “more mitogenic than bleogen pB1”, the “EGFR dependence of proliferative/mitogenic effect” value (HaCaT cells [2]) was “EGFR-dependent” and the “EGFR affinity / EGF-like biological activity compared with bleogen pB1 (EGFR displacement)” value (EGFR) was “higher affinity than bleogen pB1”. For the same molecule, the IC50 (EGFR) was 580 ± 0.089 nM and the “EGFR affinity / EGF-like biological activity compared with bleogen pB1 (EGFR displacement)” value (EGFR; listed as Y25y pB1) was “increased EGF-like biological activities”.
With “EGF: epidermal growth factor, SEQ ID NO:10, positive control” the HaCaT cell migration (HaCaT cells [3]) was “accelerate”, the “endothelial cell tube formation” value (HUVEC-CS cells) was “accelerate” and the “time of incisor eruption in newborn mice” value (newborn ICR mice) was 100 h. For the same molecule, the “wound healing, full-thickness excision wound model in C57 mice” value (C57BL/6 mice) was “accelerated wound healing from day 3 to day 11”, the “wound healing rate vs vehicle control in STZ-induced diabetic mice” value [4] was “healed at a significantly faster rate starting from day 4 post-injury” and the “mRNA expression of c-fos” value (c-fos) was “significantly upregulate”. The “mRNA expression of c-Jun” value (c-Jun) was “significantly upregulate”.
With `N#CC(=C(/N)Sc1ccccc1N)/C(C#N)=C(\N)Sc1ccccc1N` [U0126, reference compound] the “effect of co-incubation on bleogen pB1-induced HaCaT cell proliferation” value (HaCaT cells [2]) was “substantially inhibited”.
For `CC[C@H](C)[C@@H]1NC(=O)[C@H](CCC(=O)O)NC(=O)[C@H]([C@@H](C)O)NC(=O)[C@@H]2CSSC[C@@H]3NC(=O)[C@H](Cc4ccccc4)NC(=O)[C@H](CC(N)=O)NC(=O)[C@H](CO)NC(=O)[C@H](CSSC[C@H](NC(=O)[C@@H](N)CCC(N)=O)C(=O)N[C@@H](CCCCN)C(=O)N4CCC[C@H]4C(=O)N[C@@H](CC(N)=O)C(=O)NCC(=O)N[C@@H](C)C(=O)N[C@@H](CCCCN)C(=O)N2)NC(=O)[C@H](CSSC[C@@H](C(=O)N[C@@H](C)C(=O)N[C@@H](CC(N)=O)C(=O)N[C@@H](CCCNC(=N)N)C(=O)O)NC(=O)[C@H]([C@@H](C)O)NC(=O)CNC(=O)[C@H](CO)NC(=O)[C@@H](CCCCN)NC(=O)[C@H](CCC(N)=O)NC(=O)CNC(=O)[C@H](C)NC(=O)[C@H](Cc2ccc(O)cc2)NC(=O)[C@H](CCCNC(=N)N)NC(=O)[C@H](CC(C)C)NC3=O)NC(=O)[C@@H]2CCCN2C(=O)[C@@H]2CCCN2C(=O)[C@H]([C@@H](C)CC)NC(=O)[C@H](CO)NC1=O` [[K29k]pB1], the “mitogenic effect compared with bleogen pB1” value (HaCaT cells [2]; 72 h) was “more mitogenic than bleogen pB1”, the “EGFR dependence of proliferative/mitogenic effect” value (HaCaT cells [2]) was “EGFR-dependent” and the “wound closure compared with EGF and bleogen pB1 in STZ-diabetic mice” value [4] was “at a similar rate as EGF, and much faster than bleogen pB1”. For the same molecule, the “wound healing rate vs vehicle control in STZ-induced diabetic mice” value [4] was “healed at a significantly faster rate starting from day 4 post-injury”, the “wound closure compared with EGF and bleogen pB1 in STZ-diabetic mice” value ([4]; listed as K29k pB1) was “comparable” and the half-life at 0.1 M [5] was > 8.33 h. The half-life at 0.1 M (physchem) was > 8.33 h, the half-life at 0.1 M [6] was > 8.33 h and the “EGFR affinity / EGF-like biological activity compared with bleogen pB1 (EGFR displacement)” value (EGFR) was “higher affinity than bleogen pB1”. The “potency relative to bleogen pB1 (fold more potent)” value (EGFR) was “approximately 60 fold”, the IC50 (EGFR; TR-FRET, mean±S.D., three independent experiments, read-out: IC50, displacement of biotin-EGF from EGFR) was 27 ± 0.05 nM and the “EGFR affinity / EGF-like biological activity compared with bleogen pB1 (EGFR displacement)” value (EGFR; listed as K29k pB1) was “increased EGF-like biological activities”. The “potency relative to bleogen pB1 (fold more potent)” value (EGFR; listed as K29k pB1) was 60 fold.

Reference: patent US20220257706A1, “EPIDERMAL GROWTH FACTOR RECEPTOR (EGFR) LIGANDS” (NANYANG TECHNOLOGICAL UNIVERSITY, priority 2019, published 2022)
